ChEMBL document CHEMBL1201862, “PubChem BioAssay data set” (2004)
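Test compounds were applied to cells in 96-well plates for 48 hours at 5 doses. GI50 = concentration required for 50% inhibition of growth.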 Calls of active or inactive are those of the source. Cut-off read from the data, not from the text of the source: active = GI50 up to about 1.1 µM and inactive = higher.

Legend:
Assay in all cases: inhibition of tumour cell growth, NCI panel, 48 h
OVCAR-5 = tested on: OVCAR-5
NCI-H460 = tested on: NCI-H460
A498 = tested on: A498
SF-539 = tested on: SF-539
OVCAR-3 = tested on: OVCAR-3
M14 = tested on: M14
UO-31 = tested on: UO-31
CAKI-1 = tested on: CAKI-1
SK-MEL-28 = tested on: SK-MEL-28
MDA-N = tested on: MDA-N
MDA-MB-435 = tested on: MDA-MB-435
U-251 = tested on: U-251
Malme-3M = tested on: Malme-3M
BT-549 = tested on: BT-549
HT-29 = tested on: HT-29
PC-3 = tested on: PC-3
T47D = tested on: T47D
RXF 393 = tested on: RXF 393
HL-60 = tested on: HL-60
HCT-15 = tested on: HCT-15
LOX IMVI = tested on: LOX IMVI
EKVX = tested on: EKVX
NCI-H23 = tested on: NCI-H23
SK-OV-3 = tested on: SK-OV-3
KM12 = tested on: KM12
MDA-MB-231 = tested on: MDA-MB-231
SF-295 = tested on: SF-295
MCF7 = tested on: MCF7
MOLT-4 = tested on: MOLT-4
SK-MEL-2 = tested on: SK-MEL-2
NCI/ADR-RES = tested on: NCI/ADR-RES
K562 = tested on: K562
SK-MEL-5 = tested on: SK-MEL-5
A549 = tested on: A549
ACHN = tested on: ACHN
HCT-116 = tested on: HCT-116
UACC-257 = tested on: UACC-257
SW-620 = tested on: SW-620
IGROV-1 = tested on: IGROV-1
HOP-62 = tested on: HOP-62
SNB-75 = tested on: SNB-75
NCI-H226 = tested on: NCI-H226
OVCAR-8 = tested on: OVCAR-8
OVCAR-4 = tested on: OVCAR-4
Hs-578T = tested on: Hs-578T
RPMI-8226 = tested on: RPMI-8226
SR = tested on: SR
SN12C = tested on: SN12C
UACC-62 = tested on: UACC-62
SNB-19 = tested on: SNB-19
COLO 205 = tested on: COLO 205
SF-268 = tested on: SF-268
TK-10 = tested on: TK-10
786-0 = tested on: 786-0
DU-145 = tested on: DU-145
NCI-H522 = tested on: NCI-H522
HCC 2998 = tested on: HCC 2998
CCRF-CEM = tested on: CCRF-CEM
HOP-92 = tested on: HOP-92

O=C1C=CC2(O[C@H](c3ccccc3)[C@@H](c3ccccc3)O2)C(SC(=O)c2ccccc2)C1 (stereo partly drawn)
GI50 (OVCAR-5): 1.69 µM (inactive) | GI50 (NCI-H460): 3.02 µM (inactive) | GI50 (A498): 7.71 µM (inactive) | GI50 (SF-539): 1.75 µM (inactive) | GI50 (OVCAR-3): 1.79 µM (inactive) | GI50 (M14): 1.33 µM (inactive) | GI50 (UO-31): 1.37 µM (inactive) | GI50 (CAKI-1): 1.67 µM (inactive) | GI50 (SK-MEL-28): 1.79 µM (inactive) | GI50 (MDA-N): 1.43 µM (inactive) | GI50 (MDA-MB-435): 2.02 µM (inactive) | GI50 (U-251): 1.56 µM (inactive) | GI50 (Malme-3M): 2.27 µM (inactive) | GI50 (BT-549): 0.433 µM (active) | GI50 (HT-29): 2.03 µM (inactive) | GI50 (PC-3): 2.13 µM (inactive) | GI50 (T47D): 2.06 µM (inactive) | GI50 (RXF 393): 0.182 µM (active) | GI50 (HL-60): 1.84 µM (inactive) | GI50 (HCT-15): 0.673 µM | GI50 (LOX IMVI): 1.12 µM (inactive) | GI50 (EKVX): 0.182 µM (active) | GI50 (NCI-H23): 1.63 µM (inactive) | GI50 (SK-OV-3): 2.32 µM (inactive) | GI50 (KM12): 2.27 µM (inactive) | GI50 (MDA-MB-231): 3.9 µM (inactive) | GI50 (SF-295): 2.91 µM (inactive) | GI50 (MCF7): 0.371 µM (active) | GI50 (MOLT-4): 0.35 µM (active) | GI50 (SK-MEL-2): 1.72 µM (inactive) | GI50 (NCI/ADR-RES): 1.57 µM (inactive) | GI50 (K562): 1.32 µM (inactive) | GI50 (SK-MEL-5): 1.47 µM (inactive) | GI50 (A549): 4.49 µM (inactive) | GI50 (ACHN): 1.37 µM (inactive) | GI50 (HCT-116): 0.355 µM (active) | GI50 (UACC-257): 1.79 µM (inactive) | GI50 (SW-620): 0.288 µM (active) | GI50 (IGROV-1): 1.52 µM (inactive) | GI50 (HOP-62): 1.38 µM (inactive) | GI50 (SNB-75): 2.09 µM (inactive) | GI50 (NCI-H226): 1.74 µM (inactive) | GI50 (OVCAR-8): 0.201 µM (active) | GI50 (OVCAR-4): 1.63 µM (inactive) | GI50 (Hs-578T): 1.62 µM (inactive) | GI50 (RPMI-8226): 0.979 µM (active) | GI50 (SR): 0.256 µM (active) | GI50 (SN12C): 2.33 µM (inactive) | GI50 (UACC-62): 2.34 µM (inactive) | GI50 (SNB-19): 2.19 µM (inactive) | GI50 (COLO 205): 1.4 µM (inactive) | GI50 (SF-268): 1.3 µM (inactive) | GI50 (TK-10): 1.68 µM (inactive) | GI50 (786-0): 0.385 µM (active) | GI50 (DU-145): 3.34 µM (inactive)

COc1cc(N(CCC#N)CCC#N)ccc1C(=N/NC(=O)c1cc(Br)ccc1O)/N=N/c1ccc(C)cc1
GI50 (OVCAR-5): 61.4 µM (inactive) | GI50 (NCI-H460): 15.5 µM (inactive) | GI50 (SF-539): 29 µM (inactive) | GI50 (OVCAR-3): 22.9 µM (inactive) | GI50 (M14): 28.3 µM (inactive) | GI50 (UO-31): 18.5 µM (inactive) | GI50 (CAKI-1): 27.9 µM (inactive) | GI50 (SK-MEL-28): 25.1 µM (inactive) | GI50 (MDA-N): 30.9 µM (inactive) | GI50 (MDA-MB-435): 44.9 µM (inactive) | GI50 (U-251): 37.4 µM (inactive) | GI50 (Malme-3M): 29.3 µM (inactive) | GI50 (NCI-H522): 18 µM (inactive) | GI50 (BT-549): 18 µM (inactive) | GI50 (HT-29): 32.6 µM (inactive) | GI50 (PC-3): 20.6 µM (inactive) | GI50 (T47D): 4.36 µM (inactive) | GI50 (HCC 2998): 19.7 µM (inactive) | GI50 (RXF 393): 19.3 µM (inactive) | GI50 (HL-60): 15.4 µM (inactive) | GI50 (CCRF-CEM): 4.5 µM (inactive) | GI50 (HCT-15): 12.2 µM | GI50 (LOX IMVI): 17.9 µM (inactive) | GI50 (EKVX): 21.7 µM (inactive) | GI50 (HOP-92): 20.8 µM (inactive) | GI50 (NCI-H23): 17 µM (inactive) | GI50 (SK-OV-3): 24.2 µM (inactive) | GI50 (KM12): 17 µM (inactive) | GI50 (MDA-MB-231): 15.5 µM (inactive) | GI50 (SF-295): 31 µM (inactive) | GI50 (MCF7): 17.4 µM (inactive) | GI50 (MOLT-4): 14 µM (inactive) | GI50 (SK-MEL-2): 23.7 µM (inactive) | GI50 (NCI/ADR-RES): 27.1 µM (inactive) | GI50 (K562): 37.2 µM (inactive) | GI50 (SK-MEL-5): 17.1 µM (inactive) | GI50 (A549): 28.8 µM (inactive) | GI50 (ACHN): 27 µM (inactive) | GI50 (HCT-116): 16.1 µM (inactive) | GI50 (UACC-257): 25.1 µM (inactive) | GI50 (SW-620): 29.7 µM (inactive) | GI50 (IGROV-1): 4.32 µM (inactive) | GI50 (HOP-62): 20.2 µM (inactive) | GI50 (SNB-75): 22.6 µM (inactive) | GI50 (NCI-H226): 32.4 µM (inactive) | GI50 (OVCAR-8): 22.8 µM (inactive) | GI50 (OVCAR-4): 18.4 µM (inactive) | GI50 (Hs-578T): 40.2 µM (inactive) | GI50 (RPMI-8226): 22.2 µM (inactive) | GI50 (SR): 24.3 µM (inactive) | GI50 (SN12C): 17.3 µM (inactive) | GI50 (UACC-62): 18.5 µM (inactive) | GI50 (SNB-19): 25.6 µM (inactive) | GI50 (COLO 205): 15.7 µM (inactive) | GI50 (SF-268): 15.4 µM (inactive) | GI50 (TK-10): 23.9 µM (inactive) | GI50 (786-0): 32.1 µM (inactive) | GI50 (DU-145): 27.4 µM (inactive)

O=C(Nc1nnc(-c2ccccc2)o1)C(SC(=S)N1CCCC1)c1ccccc1 (stereo not drawn)
GI50 (OVCAR-5): 36.4 µM (inactive) | GI50 (NCI-H460): 16.4 µM (inactive) | GI50 (A498): 27.1 µM (inactive) | GI50 (SF-539): 34.2 µM (inactive) | GI50 (OVCAR-3): 23.5 µM (inactive) | GI50 (M14): 23.6 µM (inactive) | GI50 (UO-31): 13.3 µM (inactive) | GI50 (CAKI-1): 29.9 µM (inactive) | GI50 (SK-MEL-28): 49 µM (inactive) | GI50 (MDA-N): 32.1 µM (inactive) | GI50 (MDA-MB-435): 29.7 µM (inactive) | GI50 (U-251): 23.3 µM (inactive) | GI50 (Malme-3M): 45 µM (inactive) | GI50 (NCI-H522): 22.3 µM (inactive) | GI50 (BT-549): 23.1 µM (inactive) | GI50 (HT-29): 35.1 µM (inactive) | GI50 (PC-3): 27.8 µM (inactive) | GI50 (T47D): 46.8 µM (inactive) | GI50 (RXF 393): 40.3 µM (inactive) | GI50 (HL-60): 19.9 µM (inactive) | GI50 (CCRF-CEM): 13.4 µM (inactive) | GI50 (HCT-15): 6.9 µM | GI50 (LOX IMVI): 14.1 µM (inactive) | GI50 (EKVX): 22.3 µM (inactive) | GI50 (NCI-H23): 24.3 µM (inactive) | GI50 (SK-OV-3): 36.8 µM (inactive) | GI50 (KM12): 32.8 µM (inactive) | GI50 (MDA-MB-231): 39 µM (inactive) | GI50 (SF-295): 22.9 µM (inactive) | GI50 (MCF7): 31.3 µM (inactive) | GI50 (MOLT-4): 5 µM (inactive) | GI50 (SK-MEL-2): 25.5 µM (inactive) | GI50 (NCI/ADR-RES): 6.67 µM (inactive) | GI50 (K562): 24.4 µM (inactive) | GI50 (SK-MEL-5): 17.8 µM (inactive) | GI50 (A549): 26.4 µM (inactive) | GI50 (ACHN): 26.2 µM (inactive) | GI50 (HCT-116): 25.1 µM (inactive) | GI50 (UACC-257): 37 µM (inactive) | GI50 (SW-620): 49.1 µM (inactive) | GI50 (IGROV-1): 22.9 µM (inactive) | GI50 (HOP-62): 24.8 µM (inactive) | GI50 (SNB-75): 40.8 µM (inactive) | GI50 (NCI-H226): 32.1 µM (inactive) | GI50 (OVCAR-8): 32 µM (inactive) | GI50 (OVCAR-4): 38.7 µM (inactive) | GI50 (Hs-578T): 87.9 µM (inactive) | GI50 (RPMI-8226): 24.3 µM (inactive) | GI50 (SR): 20.1 µM (inactive) | GI50 (SN12C): 16.7 µM (inactive) | GI50 (SNB-19): 38.5 µM (inactive) | GI50 (COLO 205): 37.2 µM (inactive) | GI50 (TK-10): 51.9 µM (inactive) | GI50 (786-0): 26.4 µM (inactive) | GI50 (DU-145): 30.6 µM (inactive)
